According to ChEMBL document CHEMBL6087462, “Cuminaldehyde Potentiates Antiproteolytic Peptide Efficacy via Parallel Pathways of Enhanced Inner Membrane-Damaging Activity and Inhibition of Bacterial Energy Metabolism” (J Med Chem, 2025):

Columns and labels:
Salmonella typhimurium [1] = assay: Antimicrobial activity against Salmonella typhimurium ATCC 7731 assessed as reduction in microbial growth in presence of cuminaldehyde by CLSI based broth microdilution method; type: functional, Salmonella enterica subsp. enterica serovar Typhimurium; details: Salmonella enterica
Enterococcus faecalis [2] = assay: Synergistic antimicrobial activity against Enterococcus faecalis 29212 assessed as fractional inhibitory concentration index in presence of citronellal by checkerboard broth microdilution assay; type: functional
Escherichia coli [3] = assay: Antimicrobial activity against Escherichia coli K88 assessed as reduction in microbial growth by CLSI based broth microdilution method; type: functional
[4] = Synergistic antimicrobial activity against Salmonella enterica subsp. enterica serovar Pullorum 7913 assessed as fractional inhibitory concentration index in presence of thymol by checkerboard broth microdilution assay; type: functional
Salmonella typhimurium [5] = assay: Synergistic antimicrobial activity against Salmonella typhimurium 7731 assessed as fractional inhibitory concentration index in presence of perillaldehyde by checkerboard broth microdilution assay; type: functional, Salmonella enterica subsp. enterica serovar Typhimurium
Salmonella typhimurium [6] = assay: Antimicrobial activity against Salmonella typhimurium ATCC 14028 assessed as cuminaldehyde MIC by CLSI based broth microdilution method; type: functional, Salmonella enterica subsp. enterica serovar Typhimurium; details: Salmonella enterica
Staphylococcus aureus [7] = assay: Synergistic antimicrobial activity against Staphylococcus aureus 29213 assessed as fractional inhibitory concentration index in presence of perillaldehyde by checkerboard broth microdilution assay; type: functional
[8] = system: Staphylococcus epidermidis; assay: Antimicrobial activity against Staphylococcus epidermidis ATCC 12228 assessed as reduction in microbial growth in presence of cuminaldehyde by CLSI based broth microdilution method; type: functional
Escherichia coli [9] = assay: Synergistic antimicrobial activity against Escherichia coli UB1005 assessed as fractional inhibitory concentration index in presence of carvacrol by checkerboard broth microdilution assay; type: functional
Enterococcus faecalis [10] = assay: Antimicrobial activity against Enterococcus faecalis ATCC 29212 assessed as reduction in microbial growth by CLSI based broth microdilution method; type: functional
Escherichia coli [11] = assay: Synergistic antimicrobial activity against Escherichia coli 078 assessed as fractional inhibitory concentration index in presence of cuminaldehyde by checkerboard broth microdilution assay; type: functional, 78
Escherichia coli [12] = assay: Synergistic antimicrobial activity against Escherichia coli K99 assessed as fractional inhibitory concentration index in presence of thymol by checkerboard broth microdilution assay; type: functional
Escherichia coli [13] = assay: Antimicrobial activity against Escherichia coli ATCC 25922 assessed as reduction in microbial growth by CLSI based broth microdilution method; type: functional
[14] = system: Staphylococcus epidermidis; assay: Synergistic antimicrobial activity against Staphylococcus epidermidis ATCC 12228 assessed as fractional inhibitory concentration by checkerboard broth microdilution assay; type: functional
Escherichia coli [15] = assay: Antimicrobial activity against Escherichia coli K99 assessed as reduction in microbial growth in presence of cuminaldehyde by CLSI based broth microdilution method; type: functional
[16] = Synergistic antimicrobial activity against Salmonella enterica subsp. enterica serovar Pullorum 7913 assessed as fractional inhibitory concentration index in presence of carvacrol by checkerboard broth microdilution assay; type: functional
Salmonella typhimurium [17] = assay: Antimicrobial activity against Salmonella typhimurium ATCC 7731 assessed as reduction in microbial growth by CLSI based broth microdilution method; type: functional, Salmonella enterica subsp. enterica serovar Typhimurium; details: Salmonella enterica
Pseudomonas aeruginosa [18] = assay: Antimicrobial activity against Pseudomonas aeruginosa ATCC 27853 assessed as reduction in microbial growth by CLSI based broth microdilution method; type: functional
Staphylococcus aureus [19] = assay: Synergistic antimicrobial activity against Staphylococcus aureus 43300 assessed as fractional inhibitory concentration index in presence of citral by checkerboard broth microdilution assay; type: functional
Escherichia coli [20] = assay: Synergistic antimicrobial activity against Escherichia coli ATCC 25922 assessed as fractional inhibitory concentration by checkerboard broth microdilution assay; type: functional
[21] = Antimicrobial activity against Salmonella enterica subsp. enterica serovar Pullorum ATCC 7913 assessed as reduction in microbial growth in presence of cuminaldehyde by CLSI based broth microdilution method; type: functional
Staphylococcus aureus [22] = assay: Synergistic antimicrobial activity against Staphylococcus aureus 25923 assessed as fractional inhibitory concentration index in presence of citronellal by checkerboard broth microdilution assay; type: functional
Staphylococcus aureus [23] = assay: Synergistic antimicrobial activity against Staphylococcus aureus 25923 assessed as fractional inhibitory concentration index in presence of carvacrol by checkerboard broth microdilution assay; type: functional
Staphylococcus aureus [24] = assay: Synergistic antimicrobial activity against Staphylococcus aureus 29213 assessed as fractional inhibitory concentration index in presence of thymol by checkerboard broth microdilution assay; type: functional
Staphylococcus aureus [25] = assay: Synergistic antimicrobial activity against Staphylococcus aureus 43300 assessed as fractional inhibitory concentration index in presence of perillaldehyde by checkerboard broth microdilution assay; type: functional
Escherichia coli [26] = assay: Synergistic antimicrobial activity against Escherichia coli UB 1005 assessed as fractional inhibitory concentration by checkerboard broth microdilution assay; type: functional
Staphylococcus aureus [27] = assay: Antimicrobial activity against Staphylococcus aureus ATCC 29213 assessed as reduction in microbial growth by CLSI based broth microdilution method; type: functional
Staphylococcus aureus [28] = assay: Synergistic antimicrobial activity against Staphylococcus aureus 29213 assessed as fractional inhibitory concentration index in presence of carvacrol by checkerboard broth microdilution assay; type: functional
Escherichia coli [29] = assay: Antimicrobial activity against Escherichia coli K88 assessed as cuminaldehyde MIC by CLSI based broth microdilution method; type: functional
Escherichia coli [30] = assay: Synergistic antimicrobial activity against Escherichia coli 25922 assessed as fractional inhibitory concentration index in presence of citral by checkerboard broth microdilution assay; type: functional
[31] = Synergistic antimicrobial activity against Salmonella enterica subsp. enterica serovar Pullorum ATCC 7913 assessed as fractional inhibitory concentration by checkerboard broth microdilution assay; type: functional
Salmonella typhimurium [32] = assay: Synergistic antimicrobial activity against Salmonella typhimurium 14028 assessed as fractional inhibitory concentration index in presence of thymol by checkerboard broth microdilution assay; type: functional, Salmonella enterica subsp. enterica serovar Typhimurium
[33] = Antimicrobial activity against Salmonella enterica subsp. enterica serovar Pullorum ATCC 7913 assessed as cuminaldehyde MIC by CLSI based broth microdilution method; type: functional
Staphylococcus aureus [34] = assay: Antimicrobial activity against Staphylococcus aureus 43300 assessed as cuminaldehyde MIC by CLSI based broth microdilution method; type: functional
Escherichia coli [35] = assay: Synergistic antimicrobial activity against Escherichia coli UB1005 assessed as fractional inhibitory concentration index in presence of thymol by checkerboard broth microdilution assay; type: functional
Staphylococcus aureus [36] = assay: Antimicrobial activity against Staphylococcus aureus ATCC 25923 assessed as reduction in microbial growth by CLSI based broth microdilution method; type: functional
Staphylococcus aureus [37] = assay: Synergistic antimicrobial activity against Staphylococcus aureus 43300 assessed as fractional inhibitory concentration index in presence of citronellal by checkerboard broth microdilution assay; type: functional
Escherichia coli [38] = assay: Synergistic antimicrobial activity against Escherichia coli UB1005 assessed as fractional inhibitory concentration index in presence of cuminaldehyde by checkerboard broth microdilution assay; type: functional
Pseudomonas aeruginosa [39] = assay: Synergistic antimicrobial activity against Pseudomonas aeruginosa 27853 assessed as fractional inhibitory concentration index in presence of cuminaldehyde by checkerboard broth microdilution assay; type: functional
[40] = system: Staphylococcus epidermidis; assay: Synergistic antimicrobial activity against Staphylococcus epidermidis 12228 assessed as fractional inhibitory concentration index in presence of carvacrol by checkerboard broth microdilution assay; type: functional
Enterococcus faecalis [41] = assay: Synergistic antimicrobial activity against Enterococcus faecalis 29212 assessed as fractional inhibitory concentration index in presence of citral by checkerboard broth microdilution assay; type: functional
Staphylococcus aureus [42] = assay: Synergistic antimicrobial activity against Staphylococcus aureus ATCC 25923 assessed as fractional inhibitory concentration by checkerboard broth microdilution assay; type: functional
Escherichia coli [43] = assay: Synergistic antimicrobial activity against Escherichia coli 25922 assessed as fractional inhibitory concentration index in presence of perillaldehyde by checkerboard broth microdilution assay; type: functional

In the case of CC[C@H](C)[C@H](NC(=O)[C@@H](NC(=O)[C@@H](CCCNC(=N)N)NC(=O)[C@H](C)NC(=O)[C@H](C)NC(=O)[C@@H](N)Cc1cccc2ccccc12)[C@@H](C)CC)C(=O)N[C@@H](CC(C)C)C(=O)N[C@H](CCCNC(=N)N)C(=O)N[C@@H](Cc1c[nH]c2ccccc12)C(=O)N[C@H](CCCNC(=N)N)C(=O)N[C@@H](Cc1ccccc1)C(=O)N[C@@H](CCCNC(=N)N)C(=O)O, the MIC (Salmonella typhimurium [1]) is reported as 0.5 µg/mL, the “fractional inhibitory concentration index (FICI)” value (Enterococcus faecalis [2]) is reported as 0.375 and the MIC (Escherichia coli [3]) is reported as 4 µg/mL. For the same compound, the “fractional inhibitory concentration index (FICI)” value [4] was 0.75, the “fractional inhibitory concentration index (FICI)” value (Salmonella typhimurium [5]) was 0.254 and the MIC (Salmonella typhimurium [6]) was 1020 µg/mL. The “fractional inhibitory concentration index (FICI)” value (Staphylococcus aureus [7]) was 0.25, the MIC [8] was 4 µg/mL and the “fractional inhibitory concentration index (FICI)” value (Escherichia coli [9]) was 0.313. The MIC (Enterococcus faecalis [10]) was 8 µg/mL, the “fractional inhibitory concentration index (FICI)” value (Escherichia coli [11]) was 0.125 and the “fractional inhibitory concentration index (FICI)” value (Escherichia coli [12]) was 0.5. The MIC (Escherichia coli [13]) was 4 µg/mL, the FIC [14] was 0.25 and the MIC (Escherichia coli [15]) was 0.25 µg/mL. For the same compound, the “fractional inhibitory concentration index (FICI)” value [16] was 0.625, the MIC (Salmonella typhimurium [17]) was 8 µg/mL and the MIC (Pseudomonas aeruginosa [18]) was 32 µg/mL. The “fractional inhibitory concentration index (FICI)” value (Staphylococcus aureus [19]) was 0.313, the FIC (Escherichia coli [20]) was 0.125 and the MIC [21] was 0.5 µg/mL. For the same compound, the “fractional inhibitory concentration index (FICI)” value (Staphylococcus aureus [22]) was 0.25, the “fractional inhibitory concentration index (FICI)” value (Staphylococcus aureus [23]) was 0.375 and the “fractional inhibitory concentration index (FICI)” value (Staphylococcus aureus [24]) was 0.25. For the same compound, the “fractional inhibitory concentration index (FICI)” value (Staphylococcus aureus [25]) was 0.75, the FIC (Escherichia coli [26]) was 0.125 and the MIC (Staphylococcus aureus [27]) was 16 µg/mL. The “fractional inhibitory concentration index (FICI)” value (Staphylococcus aureus [28]) was 0.313, the MIC (Escherichia coli [29]) was 1020 µg/mL and the “fractional inhibitory concentration index (FICI)” value (Escherichia coli [30]) was 0.25. For the same compound, the FIC [31] was 0.125, the “fractional inhibitory concentration index (FICI)” value (Salmonella typhimurium [32]) was 0.313 and the MIC [33] was 1020 µg/mL. For the same compound, the MIC (Staphylococcus aureus [34]) was 1020 µg/mL, the “fractional inhibitory concentration index (FICI)” value (Escherichia coli [35]) was 0.25 and the MIC (Staphylococcus aureus [36]) was 16 µg/mL. The “fractional inhibitory concentration index (FICI)” value (Staphylococcus aureus [37]) was 0.188, the “fractional inhibitory concentration index (FICI)” value (Escherichia coli [38]) was 0.188 and the “fractional inhibitory concentration index (FICI)” value (Pseudomonas aeruginosa [39]) was 0.156. For the same compound, the “fractional inhibitory concentration index (FICI)” value [40] was 1, the “fractional inhibitory concentration index (FICI)” value (Enterococcus faecalis [41]) was 0.375 and the FIC (Staphylococcus aureus [42]) was 0.063. For the same compound, the “fractional inhibitory concentration index (FICI)” value (Escherichia coli [43]) was 0.156.
